Reference: US5495032A, “Process for producing 7-(substituted)-8-(substituted-9-[(substituted glycyl)amido]-6-demethyl-6-deoxytetracyclines” (priority 1994, dated 1996)
Converted amounts (≈) assume the structure as drawn. Like-named read-outs stand apart in the source and are kept apart here.

How the values were obtained:
Format in all cases: cell-based
[1] = system: E. coli UBMS 88-1 Tet B; assay: microbe, parasite or virus in culture; conditions: 18 hours at 35° C.
[2] = system: E. coli MC 4100 Tet sens.; assay: MIC, agar dilution method; conditions: 18 hours at 35° C.
[3] = system: E. coli PRP1 Tet A; assay: microbe, parasite or virus in culture; conditions: 18 hours at 35° C.
[4] = system: E. coli MC 4100 TNIOC Tet B; assay: microbe, parasite or virus in culture; conditions: 18 hours at 35° C.
[5] = system: E. coli J3272 Tet C; assay: microbe, parasite or virus in culture
[6] = system: E. coli UBMS 89-1 Tet M; assay: microbe, parasite or virus in culture; conditions: 18 hours at 35° C.
[7] = system: E. coli UBMS 89-2 Tet sens; assay: MIC, agar dilution method; conditions: 18 hours at 35° C.
[8] = system: E. coli J2175; assay: MIC, agar dilution method; conditions: 18 hours at 35° C.
[9] = system: E. coli BAJ9003 IMP MUT; assay: microbe, parasite or virus in culture; conditions: 18 hours at 35° C.
[10] = system: E. coli UBMS 90-4 Tet M; assay: microbe, parasite or virus in culture; conditions: 18 hours at 35° C.
[11] = system: E. coli UBMS 90-5 sens; assay: MIC, agar dilution method; conditions: 18 hours at 35° C.
[12] = system: E. coli #311 (MP); assay: MIC, agar dilution method; conditions: 18 hours at 35° C.
[13] = system: E. coli ATCC 25922; assay: MIC, agar dilution method
[14] = system: E. coli J3272 Tet D; assay: microbe, parasite or virus in culture
[15] = system: S. mariescens FPOR 8733; assay: MIC, agar dilution method; conditions: 18 hours at 35° C.
[16] = system: X. maltophilia NEMC 87210; assay: MIC, agar dilution method
[17] = system: Ps. acruginosa ATCC 27853; assay: MIC, agar dilution method; conditions: Ps. acruginosa ATCC 27853, 18 hours at 35° C.
[18] = system: S. aureus NEMC 8769; assay: MIC, agar dilution method
[19] = system: S. aureus UBMS 88-4; assay: MIC, agar dilution method
[20] = system: S. aureus UBMS 88-5 Tet M; assay: microbe, parasite or virus in culture
[21] = system: S. aureus UBMS 88-7 Tet K; assay: microbe, parasite or virus in culture; conditions: 18 hours at 35° C.
[22] = system: S. aureus UBMS 90-1 Tet M; assay: microbe, parasite or virus in culture; conditions: 18 hours at 35° C.
[23] = system: S. aureus UBMS 90-3; assay: MIC, agar dilution method
[24] = system: S. aureus UBMS 90-2 Tet M; assay: microbe, parasite or virus in culture; conditions: 18 hours at 35° C.
[25] = system: S. aureus IVES 2943; assay: MIC, agar dilution method
[26] = system: S. aureus ROSE (MP); assay: MIC, agar dilution method; conditions: 18 hours at 35° C.
[27] = system: S. aureus SMITH (MP); assay: MIC, agar dilution method; conditions: 18 hours at 35° C.
[28] = system: S. aureus IVES 1 983; assay: MIC, agar dilution method
[29] = system: S. aureus ATCC 29213; assay: MIC, agar dilution method; conditions: 18 hours at 35° C.
[30] = system: S. hemolyticus AVHAH 88-3; assay: MIC, agar dilution method
[31] = system: Enterococcus 12201; assay: MIC, agar dilution method; conditions: 18 hours at 35° C.
[32] = system: E. faecalis ATCC 29212; assay: MIC, agar dilution method; conditions: 18 hours at 35° C.
[33] = Escherichia coli, read-out: MIC
[34] = Stenotrophomonas maltophilia, NEMC87210, 18 hours at 35° C., read-out: MIC
[35] = Staphylococcus aureus, NEMC8769, 18 h
[36] = Enterococcus faecalis, ATCC29212, 18 h
[37] = E. coli J3272 Tet C, 18 hours at 35° C.
[38] = E. coli J3272 Tet D, 18 hours at 35° C.
[39] = S. aureus UBMS 88-5 Tet M, 18 hours at 35° C.
[40] = S. aureus UBMS 90-3, 18 hours at 35° C.
[41] = S. aureus IVES 2943, 18 hours at 35° C.
[42] = S. aureus IVES 1 983, 18 hours at 35° C.

## CN(C)CC(=O)Nc1c(O)c2c(c(N(C)C)c1Cl)CC1CC3[C@H](N(C)C)C(O)=C(C(N)=O)C(=O)[C@@]3(O)C(O)=C1C2=O (stereo partly drawn) [B, [4S-(4α,12aα)]-8-Chloro-4,7-(dimethylamino)-9-[[(dimethylamino)acetyl]amino]-1,4,4a,5,5a,6,11,12a-octahydro-3,10,12,12a-tetrahydroxy-1,11-dioxo-2-naphthacenecarboxamide]
[1]; Escherichia coli, UBMS881TETB, 18 h
  MIC: > 32 µg/mL
[2]; [33]
  MIC: 2 µg/mL (≈ 3.38 µM)
[3]; Escherichia coli, PRP1TETA, 18 h
  MIC: 16 µg/mL (≈ 27 µM)
[4]; Escherichia coli, 18 h
  MIC: > 32 µg/mL
[5]; Escherichia coli, J3272TETC, 18 h
  MIC: 16 µg/mL (≈ 27 µM)
[6]; Escherichia coli, UBMS891TETM, 18 h
  MIC: 32 µg/mL (≈ 54 µM)
[7]; Escherichia coli, UBMS892TETSENS, 18 h, read-out: MIC
  MIC: 16 µg/mL (≈ 27 µM)
[8]; [33]
  MIC: 32 µg/mL (≈ 54 µM)
[9]; Escherichia coli, BAJ9003IMPMUT, 18 h
  MIC: 0.12 µg/mL (≈ 0.203 µM)
[10]; Escherichia coli, UBMS904TETM, 18 h
  MIC: > 32 µg/mL
[11]; Escherichia coli, UBMS905SENS, read-out: MIC
  MIC: 32 µg/mL (≈ 54 µM)
[12]; [33]
  MIC: 4 µg/mL (≈ 6.76 µM)
[13]; Escherichia coli, ATCC25922, 18 hours at 35° C., read-out: MIC
  MIC: 8 µg/mL (≈ 13.5 µM)
[14]; Escherichia coli, J3272TETD, 18 h
  MIC: 32 µg/mL (≈ 54 µM)
[15]; 18 h
  MIC: > 32 µg/mL
[16]; [34]
  MIC: 0.5 µg/mL (≈ 0.845 µM)
[17]; read-out: MIC
  MIC: > 32 µg/mL
[18]; [35]
  MIC: 0.12 µg/mL (≈ 0.203 µM)
[19]; Staphylococcus aureus, UBMS884, 18 hours at 35° C., read-out: MIC
  MIC: 0.25 µg/mL (≈ 0.422 µM)
[20]; Staphylococcus aureus, UBMS885TETM, 18 h
  MIC: 0.25 µg/mL (≈ 0.422 µM)
[21]; Staphylococcus aureus, UBMS887TETK, 18 h
  MIC: 2 µg/mL (≈ 3.38 µM)
[22]; Staphylococcus aureus, UBMS901TETM, 18 h
  MIC: 0.5 µg/mL (≈ 0.845 µM)
[23]; Staphylococcus aureus, UBMS903, 18 h
  MIC: 0.12 µg/mL (≈ 0.203 µM)
[24]; Staphylococcus aureus, UBMS902TETM, 18 h
  MIC: 0.25 µg/mL (≈ 0.422 µM)
[25]; Staphylococcus aureus, IVES2943, 18 h
  MIC: 4 µg/mL (≈ 6.76 µM)
[26]; Staphylococcus aureus, 18 h
  MIC: 8 µg/mL (≈ 13.5 µM)
[27]; Staphylococcus aureus, 18 h
  MIC: 0.12 µg/mL (≈ 0.203 µM)
[28]; Staphylococcus aureus, IVES1983, 18 h
  MIC: 4 µg/mL (≈ 6.76 µM)
[29]; Staphylococcus aureus, ATCC29213, 18 h
  MIC: 0.25 µg/mL (≈ 0.422 µM)
[30]; Streptococcus pyogenes, AVHAH883, 18 hours at 35° C., read-out: MIC
  MIC: 0.5 µg/mL (≈ 0.845 µM)
[31]; Enterococcus, 12201, 18 h
  MIC: 0.12 µg/mL (≈ 0.203 µM)
[32]; [36]
  MIC: 0.12 µg/mL (≈ 0.203 µM)

## CN(C)CC(=O)Nc1c(Cl)cc2c(c1O)C(=O)C1=C(O)[C@]3(O)C(=O)C(C(N)=O)=C(O)[C@@H](N(C)C)C3CC1C2 (stereo partly drawn) [C, [4S-(4α,12aα)]-8-Chloro-4-(dimethylamino)-9-[[(dimethylamino)acetyl]amino]-1,4,4a,5,5a,6,11,12a-octahydro-3,10,12,12a-tetrahydroxy-1,11-dioxo-2-naphthacenecarboxamide]
[1]
  MIC: 1 µg/mL (≈ 1.82 µM)
[2]; [33]
  MIC: 0.25 µg/mL (≈ 0.455 µM)
[3]
  MIC: 8 µg/mL (≈ 14.6 µM)
[4]
  MIC: 1 µg/mL (≈ 1.82 µM)
[5]; [37]
  MIC: 8 µg/mL (≈ 14.6 µM)
[6]
  MIC: 0.25 µg/mL (≈ 0.455 µM)
[7]
  MIC: 1 µg/mL (≈ 1.82 µM)
[8]
  MIC: 1 µg/mL (≈ 1.82 µM)
[9]
  MIC: 0.12 µg/mL (≈ 0.219 µM)
[10]
  MIC: 0.5 µg/mL (≈ 0.911 µM)
[11]
  MIC: 1 µg/mL (≈ 1.82 µM)
[12]
  MIC: 0.5 µg/mL (≈ 0.911 µM)
[13]; 18 hours at 35° C.
  MIC: 0.5 µg/mL (≈ 0.911 µM)
[14]; [38]
  MIC: 0.5 µg/mL (≈ 0.911 µM)
[15]
  MIC: 8 µg/mL (≈ 14.6 µM)
[16]; [34]
  MIC: 0.05 µg/mL (≈ 0.0911 µM)
[17]; read-out: MIC
  MIC: > 32 µg/mL
[18]; [35]
  MIC: 0.03 µg/mL (≈ 0.0546 µM)
[19]; 18 hours at 35° C.
  MIC: 0.12 µg/mL (≈ 0.219 µM)
[20]; [39]
  MIC: 2 µg/mL (≈ 3.64 µM)
[21]
  MIC: 0.25 µg/mL (≈ 0.455 µM)
[22]
  MIC: 4 µg/mL (≈ 7.29 µM)
[23]; [40]
  MIC: 0.12 µg/mL (≈ 0.219 µM)
[24]
  MIC: 1 µg/mL (≈ 1.82 µM)
[25]; [41]
  MIC: 4 µg/mL (≈ 7.29 µM)
[26]
  MIC: 1 µg/mL (≈ 1.82 µM)
[27]
  MIC: 0.12 µg/mL (≈ 0.219 µM)
[28]; [42]
  MIC: 4 µg/mL (≈ 7.29 µM)
[29]
  MIC: 0.25 µg/mL (≈ 0.455 µM)
[30]; 18 hours at 35° C.
  MIC: 0.5 µg/mL (≈ 0.911 µM)
[31]
  MIC: 8 µg/mL (≈ 14.6 µM)
[32]; [36]
  MIC: 0.5 µg/mL (≈ 0.911 µM)

## CN(C)C1C(O)=C(C(N)=O)C(=O)C2(O)C(O)=C3C(=O)c4c(cc(Cl)c(NC(=O)CNCC5CC5)c4O)CC3CC12.Cl.Cl (stereo not drawn) [G, [4S-(4α,12aα)]-8-Chloro-9-[[(cyclopropylmethylamino)acetyl]amino]-4-(dimethylamino)-1,4,4a,5,5a,6,11,12a-octahydro-3,10,12,12a-tetrahydroxy-1,11-dioxo-2-naphthacenecarboxamide dihydrochloride]
[1]
  MIC: 1 µg/mL
[2]
  MIC: 0.25 µg/mL
[3]
  MIC: 4 µg/mL
[4]
  MIC: 1 µg/mL
[5]; [37]
  MIC: 1 µg/mL
[6]
  MIC: 0.5 µg/mL
[7]
  MIC: 1 µg/mL
[8]
  MIC: 1 µg/mL
[9]
  MIC: 0.12 µg/mL
[10]
  MIC: 1 µg/mL
[11]
  MIC: 1 µg/mL
[12]
  MIC: 1 µg/mL
[13]; 18 hours at 35° C.
  MIC: 1 µg/mL
[14]; [38]
  MIC: 1 µg/mL
[15]
  MIC: 8 µg/mL
[16]; 18 hours at 35° C.
  MIC: 4 µg/mL
[17]
  MIC: 32 µg/mL
[18]; S. aureus NEMC 8769, 18 hours at 35° C.
  MIC: 0.5 µg/mL
[19]; 18 hours at 35° C.
  MIC: 0.5 µg/mL
[20]; [39]
  MIC: 0.5 µg/mL
[21]
  MIC: 8 µg/mL
[22]
  MIC: 2 µg/mL
[23]; [40]
  MIC: 0.12 µg/mL
[24]
  MIC: 0.5 µg/mL
[25]; [41]
  MIC: 16 µg/mL
[26]
  MIC: 32 µg/mL
[27]
  MIC: 0.5 µg/mL
[28]; [42]
  MIC: 16 µg/mL
[29]
  MIC: 0.25 µg/mL
[30]; 18 hours at 35° C.
  MIC: 8 µg/mL
[31]
  MIC: 0.25 µg/mL
[32]
  MIC: 0.25 µg/mL
